Test results taken from patent publication US20110256121A1, “METHODS AND KITS FOR DIAGNOSING OR MONITORING AUTOIMMUNE AND CHRONIC INFLAMMATORY DISEASES” (THE REGENTS OF THE UNIVERSITY OF MICHIGAN, priority 2008, published 2011).

Legend:
Type in all cases: cell-based, human
KIR2DL2 = KIR2DL2 transcripts by real-time quantitative RT-PCR; details: relative to β-actin, p<0.001 for both
Description: T cell purification and culture. Peripheral blood mononuclear cells (PBMC) were isolated from healthy donors by density gradient centrifugation, stimulated for 18 hours with 1 μg/mlphytohemagglutinin (PHA) (Murex, Norcross, Ga.), then treated or not with 5 μm 5-azacytidine (5-azaC, Sigma, St. Louis, Mo.) for 72 hours as described (6). Total T cells, CD4^+ T cells or CD8′ T cells then were purified using the pan T cell isolation kit II or the CD4^+ and CD8^+ T cell isolation kit II from Miltenyi (Auburn, Calif.). T cells were typically >94% CD3^+ by flow cytometry. Jurkat cells (E6-1) were maintained in culture as described (11). This protocol was approved by the University of Michigan Institutional Review Board.
Real-time quantitative RT-PCR. Total RNA was isolated using the RNeasy Mini Kit (QIAGEN, Valencia, Calif.). Primers were designed to match polymorphic positions unique to KIR2DL2 or KIR2DL4 genes as described by Uhrberg et al. (13). Controls included β-actin primers as described (14). Real-time quantitative RT-PCR was performed with a Rotor-Gene 3000 (Corbett Robotics, San Francisco, Calif.) and QuantiTect SYBR Green RT-PCR kit (QIAGEN) according to manufacturer's instructions. cDNA synthesized from T cells was used to generate standard curves for β-actin, KIR2DL2 and KIR2DL4, and each experiment was repeated at least twice.
Confirmation at the protein and mRNA levels. […]

KIR2DL4 promoter = KIR2DL4 promoter methylation, bisulfite sequencing and MS-PCR
Description: Bisulfite conversion and DNA sequencing. Genomic DNA was isolated from T cells using FlexiGene DNA Kits (QIAGEN) then treated with sodium bisulfite as described (15). HotStar Taq (QIAGEN) was used for amplification with the following conditions: initial incubation 95° C. 15 min, then 45 cycles 95° C. 30 s, 52° C. 30 s and 72° C. 30 s. PCR products were purified using QIAEXII Gel Extraction Kits (QIAGEN), and cloned using the pGEM-T Easy Vector System (Promega, Madison, Wis.). 10 cloned fragments were sequenced for each sample by the University of Michigan Sequencing Core.
Real-time quantitative methylation specific PCR (MSP). Three real-time MSP assays were developed for detection and quantitation of each KIR gene: one specific for the bisulfite-converted methylated sequence, one for the bisulfite-converted unmethylated sequence, and a loading control comprising primers to an adjacent bisulfite-converted sequence lacking CG pairs. MSP reactions were performed using QuantiTect SYBR Green PCR kits (QIAGEN) according to the manufacture's protocol using […] of each primer, 100 ng converted DNA and the Rotor-Gene 3000. […] Levels of amplified methylated and unmethylated fragments were standardized to the control fragment, and the methylation index calculated as […]

Sp1 = Sp1 quantitation in nuclear extracts of T cells; details: PHA-stimulated T cells, 5-azaC 72 h
KIR = KIR expression on 5-azaC treated T cells, anti-KIR antibody cocktail, flow cytometry
Excerpt: Antibodies: Unconjugated and PE-conjugated anti-CD158d (KIR2DL4) were purchased from R&D Systems, Minneapolis, Minn. and unconjugated and PE-conjugated anti-NKB1 (KIR3DL1), anti-perforin antibodies and isotype matched control antibodies were obtained from BD PharMingen, San Diego Calif. PE-conjugated anti-CD158i (KIR2DS4) was obtained from Beckman Coulter (Fullerton Calif.). Anti-CD4-Cy5, anti-CD8-FITC, and PE-conjugated antibodies to and KIR2DS2 (anti-CD158b) were obtained from BD PharMingen, KIR2DL1/2DS2 (CD158a/h) and KIR3DL1/3DS1 (CD158e1/e2) from Beckman Coulter, and 2DL1/2DL3/2DS2 (anti-CD158 b1/b2/j (GL183) was purchased from R&D Systems. Minneapolis, Minn.). Ten microliters of each PE-conjugated anti-KIR antibody were mixed to form a “cocktail” used to stain the cells. […] Following staining, the cells were fixed in 1% paraformaldehyde and kept at 4° C. until analyzed. […]
CD4+ and CD8+ T cells demethylate and express KIR genes following treatment with the DNA methylation inhibitor 5-azaC. PBMC from 11 healthy subjects were stimulated with PHA, treated with 5-azaC, then KIR expression was measured on untreated and treated CD4+ and CD8+ cells using a “cocktail” of anti-KIR antibodies and flow cytometry as described in Materials and Methods above.

## Nc1ncn([C@@H]2O[C@H](CO)[C@@H](O)[C@H]2O)c(=O)n1 [5-azaC, 5-azacytidine]
KIR2DL2
  KIR2DL2 mRNA in CD4+ and CD8+ T cells: increase is significant in both subsets
KIR2DL4 promoter; CD4+ and CD8+ cells, 5-azaC treated vs untreated
  KIR2DL4 promoter methylation pattern, bisulfite sequencing: generalized demethylation in the treated cells
KIR2DL4 promoter; CD4+ and CD8+ subsets, p<0.001
  KIR2DL4 promoter methylation index, MS-PCR: demethylates these regions in all 5 subjects
Sp1
  activated Sp1 levels: increases activated Sp1 levels
KIR
  expression of additional KIR proteins on T cells: induced expression of additional KIR proteins including KIR3DL1, KIR2DS4 and KIR2DL2/2DL3
KIR; 11 healthy subjects, PHA, anti-KIR cocktail
  KIR expression on CD4+ and CD8+ T cells: significantly increases KIR expression
